Data reported in US20260124214A1, “HETEROCYCLIC COMPOUNDS FOR USE IN THE TREATMENT OF CANCER” (ARTIOS PHARMA LIMITED, priority 2021, published 2026).
Structures can show the parent of a compound that is named as a salt.

Target: T1, Human Polθ polymerase domain (aa1820-2590) (Homo sapiens, UniProt O75417)
T1 construct: Human Polθ polymerase domain (aa1820-2590) was expressed in E. Coli; made in house; host or cells: E. coli
T1 sequence (O75417 1820-2590): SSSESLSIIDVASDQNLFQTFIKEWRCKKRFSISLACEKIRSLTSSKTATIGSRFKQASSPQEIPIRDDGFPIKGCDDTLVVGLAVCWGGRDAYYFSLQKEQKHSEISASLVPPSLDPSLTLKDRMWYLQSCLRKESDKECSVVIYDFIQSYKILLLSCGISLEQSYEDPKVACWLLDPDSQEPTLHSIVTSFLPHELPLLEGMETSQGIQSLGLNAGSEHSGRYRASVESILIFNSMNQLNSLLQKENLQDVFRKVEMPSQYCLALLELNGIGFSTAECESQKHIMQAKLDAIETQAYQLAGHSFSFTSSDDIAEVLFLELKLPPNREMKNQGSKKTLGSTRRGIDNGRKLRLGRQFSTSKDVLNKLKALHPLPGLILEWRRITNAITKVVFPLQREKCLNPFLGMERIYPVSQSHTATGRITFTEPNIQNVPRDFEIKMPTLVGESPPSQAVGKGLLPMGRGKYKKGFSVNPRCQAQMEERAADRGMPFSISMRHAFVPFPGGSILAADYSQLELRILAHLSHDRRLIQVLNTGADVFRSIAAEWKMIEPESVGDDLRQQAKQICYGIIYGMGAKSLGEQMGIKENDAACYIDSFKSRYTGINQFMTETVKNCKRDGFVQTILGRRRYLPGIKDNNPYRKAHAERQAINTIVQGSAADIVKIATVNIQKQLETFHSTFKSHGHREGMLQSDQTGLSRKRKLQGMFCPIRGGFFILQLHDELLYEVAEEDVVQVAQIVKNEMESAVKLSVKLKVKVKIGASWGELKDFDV
Assay: Polθ Polymerase Domain WT KI Assay (PicoGreen)
Type: biochemical
Settings: 100 nM DNA substrate, 0.156 nM Polθ, initial rates vs inhibitor concentration
Procedure, shortened: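 E. coli-expressed human Polθ polymerase domain (aa1820-2590) on annealed DNA II Short/Long primer-template (1.2:1), in 25 mM Tris pH 7.5, NaCl, 5% glycerol, 0.01% Triton X-100, 0.1 mg/ml BSA, 1 mM DTT, 1% DMSO. EDTA-quenched timepoints to 180 min, PicoGreen fluorescence. Initial rates vs inhibitor concentration fitted four-parameter for KI.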

Row | SMILES | Ki
1 | Cc1cc(C(F)(F)F)cc(N2C(=O)C[C@@H]3CN(CCN4CCS(=O)(=O)CC4)c4c(C)cccc4N(C)C(=O)[C@H]32)n1 [Example 68, (3aR,11aS)-5-(2-(1,1-Dioxidothiomorpholino)ethyl)-6,10-dimethyl-1-(6-methyl-4-(trifluoromethyl)pyridin-2-yl)-1,3a,4,5,10,11a-hexahydro-2H-benzo[b]pyrrolo[2,3-f][1,4]diazocine-2,11(3H)-dione] | 1.07 nM
2 | Cc1cc(C(F)(F)F)cc(N2C(=O)C[C@@H]3CN(CCN4CC[C@H](C(=O)N(C)C)C4)c4c(Cl)cccc4N(C)C(=O)[C@H]32)n1 [Example 41, (S)-1-(2-((3aR,11aS)-6-Chloro-10-methyl-1-(6-methyl-4-(trifluoromethyl)pyridin-2-yl)-2,11-dioxo-1,2,3,3a,4,10,11,11a-octahydro-5H-benzo[b]pyrrolo[2,3-f][1,4]diazocin-5-yl)ethyl)-N,N-dimethylpyrrolidine-3-carboxamide] | 2.9 nM
3 | Cc1cc(C(F)(F)F)cc(N2C(=O)C[C@@H]3CNc4c(Cl)cccc4N(C)C(=O)[C@H]32)n1 [Example 2, (3aR,11aS)-6-Chloro-10-methyl-1-(6-methyl-4-(trifluoromethyl)pyridin-2-yl)-1,3a,4,5,10,11a-hexahydro-2H-benzo[b]pyrrolo[2,3-f][1,4]diazocine-2,11(3H)-dione] | 0.847 nM
4 | Cc1cc(C(F)(F)F)cc(N2C(=O)C[C@@H]3CN(Cc4nc5n(c4F)CCN(C)C5)c4c(C)cccc4N(C)C(=O)[C@H]32)n1 [Example 83, (3aR,11aS)-5-((3-Fluoro-7-methyl-5,6,7,8-tetrahydroimidazo[1,2-a]pyrazin-2-yl)methyl)-6,10-dimethyl-1-(6-methyl-4-(trifluoromethyl)pyridin-2-yl)-1,3a,4,5,10,11a-hexahydro-2H-benzo[b]pyrrolo[2,3-f][1,4]diazocine-2,11(3H)-dione] | 0.254 nM
5 | Cc1cc(C(F)(F)F)cc(N2C(=O)C[C@@H]3CN(c4cccnc4)c4c(F)cccc4N(C)C(=O)[C@H]32)n1 [Example 138, (3aR,11aS)-6-Fluoro-10-methyl-1-(6-methyl-4-(trifluoromethyl)pyridin-2-yl)-5-(pyridin-3-yl)-1,3a,4,5,10,11a-hexahydro-2H-benzo[b]pyrrolo[2,3-f][1,4]diazocine-2,11(3H)-dione] | 645 nM
6 | Cc1cc(C(F)(F)F)cc(N2C(=O)C[C@@H]3CN(CCCN4CCN(C)CC4)c4c(Cl)cccc4N(C)C(=O)[C@H]32)n1 [Example 129, (3aR,11aS)-6-Chloro-10-methyl-1-(6-methyl-4-(trifluoromethyl)pyridin-2-yl)-5-(3-(4-methylpiperazin-1-yl)propyl)-1,3a,4,5,10,11a-hexahydro-2H-benzo[b]pyrrolo[2,3-f][1,4]diazocine-2,11(3H)-dione] | 1.23 nM
7 | C=CCN1C[C@H]2CC(=O)N(c3cc(C(F)(F)F)cc(C)n3)[C@@H]2C(=O)N(C)c2c(F)c(F)cc(Cl)c21 [Example 6, (3aR,11aS)-5-Allyl-6-chloro-8,9-difluoro-10-methyl-1-(6-methyl-4-(trifluoromethyl)pyridin-2-yl)-1,3a,4,5,10,11a-hexahydro-2H-benzo[b]pyrrolo[2,3-f][1,4]diazocine-2,11(3H)-dione] | 5.14 nM
8 | Cc1cc(C(F)(F)F)cc(N2C(=O)C[C@@H]3CN(CC4CCCNC4)c4c(F)cccc4N(C)C(=O)[C@H]32)n1 (stereo partly drawn) [Example 97, (3aR,11aS)-6-Fluoro-10-methyl-1-(6-methyl-4-(trifluoromethyl)pyridin-2-yl)-5-(piperidin-3-ylmethyl)-1,3a,4,5,10,11a-hexahydro-2H-benzo[b]pyrrolo[2,3-f][1,4]diazocine-2,11(3H)-dione hydrochloride] | 8.7 nM
9 | Cc1cc(C(F)(F)F)cc(N2C(=O)C[C@@H]3CN(CCOCCN(C)C)c4c(Cl)cccc4N(C)C(=O)[C@H]32)n1 [Example 89, (3aR,11aS)-6-Chloro-5-(2-(2-(dimethylamino)ethoxy)ethyl)-10-methyl-1-(6-methyl-4-(trifluoromethyl)pyridin-2-yl)-1,3a,4,5,10,11a-hexahydro-2H-benzo[b]pyrrolo[2,3-f][1,4]diazocine-2,11(3H)-dione hydrochloride] | 1.85 nM
10 | Cc1cc(C(F)(F)F)cc(N2C(=O)C[C@@H]3CN(CC4CCNCC4)c4c(F)cccc4N(C)C(=O)[C@H]32)n1 [Example 77, (3aR,11aS)-6-Fluoro-10-methyl-1-(6-methyl-4-(trifluoromethyl)pyridin-2-yl)-5-(piperidin-4-ylmethyl)-1,3a,4,5,10,11a-hexahydro-2H-benzo[b]pyrrolo[2,3-f][1,4]diazocine-2,11(3H)-dione Hydrochloride] | 11.3 nM
